The values below come from patent publication US9060997B2, “Antifolate compounds for the treatment of melanoma” (UNIVERSIDAD DE MURCIA, priority 2007, dated 2015).

In series [1] the test system is SkMel-28 cells. Briefly: MTT cell proliferation assay, SkMel-28. Type of series: cell-based, human. The following applies: for IC50: SK-MEL-28, 120 h. On the procedure: (§1) Four human cancer cells lines (SkMel-28, MCF7, H1264 and Caco-2) were obtained from the American Type Tissue Culture Collection (ATCC) and were maintained in appropriate culture mediums supplemented with 10% fetal calf serum (FCS) and antibiotics, under standard tissue culture conditions (e.g. modified Eagle's medium (MEM) containing 1 mM sodium pyruvate and 10% fetal bovine serum (FES) under 5% CO2/95% air atmosphere.). Cell injury was evaluated by a colorimetric assay for mitochondrial function using the 3-(4,5-dimethylthiazolyl-2)-2,5-diphenyltetrazolium bromide (MTT) cell proliferation assay. For this assay cells were plated in a 96-well plate at a density of 1000 cells/well and grown until they reached 50-60% confluence. Human epidermal melanocytes (HeM) were supplied by Gentaur and were cultured in HAM-F10 medium supplemented with 10% FCS, antibiotics and the human melanocyte growth supplement (Gentaur).
Cell injury was evaluated by a colorimetric assay for mitochondrial function using the 3-(4,5-dimethylthiazolyl-2)-2,5-diphenyltetrazolium bromide (MTT) cell proliferation assay. For this assay cells were plated in a 96-well plate at a density of 1000 cells/well and grown until they reached 30% confluence. Co-treatments of SkMel-28 cells with TMECG and other reagents were carried out by supplementing medium cultures with S-adenosylmethionine (SAM), adenosine or dipyridamole (all from Sigma).

The subject of series [2] is B16/F10 melanoma cell tumours. Briefly: Primary tumour model, B16/F10 melanoma in C57/B16 mice. Type of series: in vivo, mouse. The text has this: Translational therapy was then designed to probe the efficacy of this combination on mice induced melanoma tumor. Injection of 5×10^5 B16/F10 melanoma cells in the back of C57/B16 mice formed a blackish tumor mass, which in untreated control mice reached to a tumor area of 3.7±0.7 and 9.3±1.1 cm2 in female and male, respectively, after 21 days of cells inoculation.

A further series deals with Caco-2 cells. Briefly: MTT cell proliferation assay, Caco-2. Type of series: cell-based, human. As to conditions: Caco-2. On the procedure: as §1
Background: Tetrazolium dyes change colour on reduction, which living cells bring about.

Series [3] deals with T1, rHDHFR (Homo sapiens, UniProt P00374).
T1 construct: purchased Sigma
T1 sequence (P00374 1-187): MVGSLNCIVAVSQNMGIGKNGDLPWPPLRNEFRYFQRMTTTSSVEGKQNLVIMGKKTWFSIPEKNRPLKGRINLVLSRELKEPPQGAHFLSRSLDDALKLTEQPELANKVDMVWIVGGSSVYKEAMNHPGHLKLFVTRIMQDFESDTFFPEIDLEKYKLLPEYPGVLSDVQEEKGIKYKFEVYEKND
Briefly: rHDHFR binding: fluorescence titration and stopped-flow fluorescence. As to conditions: for koff: calculated from KI=koff/kon; for Ki: dissociation constant, free rHDHFR, fluorescence titration; for Ki / kon: pH 7.4, 25° C.; for kon: stopped-flow fluorescence. On the procedure: The experiments were carried out in a buffer containing 2-(N-morpholino)ethanesulfonic acid (Mes, 0.025 M), sodium acetate (0.025 M), tris-(hydroxymethyl)aminomethane (Tris 0.05 M), and NaCl (0.1 M) at pH 7.4 and 25° C. in the presence of QM and rHDHFR (0.5 μM).
Stopped-flow fluorescence experiments were carried out at pH 7.4 and 25° C. using an enzyme concentration of 0.25 μM. The reaction of rHDHFR with inhibitors was observed under pseudo-first order conditions by fluorescence at 340 nm (excitation at 290 nm). The data points s are the means of at least 3 (normally 5) repeat observations±SD. […] Aliquots (20 μl) of the incubation mixture was then diluted 50-fold into a reaction mixture containing the buffer, NADPH (100 μM), and DHF (10 μM) to give a final enzyme concentration of 1.5 nM.
(§2) The activity of rHDHFR was determined at 25° C. by following the decrease in the absorbance of NADPH and DHF at 340 nm (ε=11800 M-1 cm−1) (Stone and Morrison, 1986). Progress curves were obtained under ordered conditions ([NADPH]>>[DHF]). rHDHFR inhibition constants were calculated as described by Navarro-Perán et al., 2005b. The dissociation constant for the binding of inhibitors to free rHDHFR was determined at 25° C. by fluorescence titration in an automatic-scanning Perkin-Elmer LS50B spectrofluorimeter. Fluorescence emission spectra were recorded when rHDHFR fluorescence was excited at 290 nm. Stopped-flow fluorescence experiments were carried out using an Applied Photophysics Ltd. Pi-Star 180 spectrometer with a stopped-flow unit at 25° C.

Series [4] concerns the target T1, rHDHFR. Briefly: rHDHFR inhibition, progress curves. The following applies: for Decrease % further EI reactions: decrease of KI to KI* by further EI-complex reactions; for Ki: overall (effective) inhibition constant, read-out: KI*. Type of series: biochemical. On the procedure:
The experiments were carried out in the same buffer as fluorescence experiments in the presence of NADPH (100 μM), DHF (10 μM), and rHDHFR (1.5 nM).
as §2

The target in the next series is T2, human tyrosinase (Homo sapiens, UniProt P14679).
T2 sequence (P14679 19-529): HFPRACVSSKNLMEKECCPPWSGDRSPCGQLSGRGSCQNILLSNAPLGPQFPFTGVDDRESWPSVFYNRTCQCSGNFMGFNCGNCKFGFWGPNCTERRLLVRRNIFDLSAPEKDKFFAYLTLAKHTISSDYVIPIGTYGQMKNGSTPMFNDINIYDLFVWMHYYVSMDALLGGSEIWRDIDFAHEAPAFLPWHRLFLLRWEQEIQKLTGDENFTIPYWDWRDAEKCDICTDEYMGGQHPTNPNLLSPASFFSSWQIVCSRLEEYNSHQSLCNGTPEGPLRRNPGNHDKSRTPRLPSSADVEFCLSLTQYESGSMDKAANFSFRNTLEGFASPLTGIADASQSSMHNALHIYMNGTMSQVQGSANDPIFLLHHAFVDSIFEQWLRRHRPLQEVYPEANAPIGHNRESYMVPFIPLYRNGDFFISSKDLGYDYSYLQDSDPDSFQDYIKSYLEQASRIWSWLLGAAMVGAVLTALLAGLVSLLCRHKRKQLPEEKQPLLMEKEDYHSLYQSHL
As to conditions: recombinant human tyrosinase (Kong et al., 2000); read-out: Michaelis-Menten constant (Km), value reported; cited from earlier work.

For series [5], the system named is SkMel-28 cells. Briefly: Microscopy of melanosome melanin content. Type of series: cell-based, human. The following applies: treated SkMel-28 versus untreated. Here is the method: Confluent monolayers of SkMel-28 were harvested with a mixture of 0.05% trypsin, 0.53 mmol/L EDTA and washed once in 0.25 mol/L sucrose by centrifugation at 700×g for 5 min at 4° C. They were then homogenized on ice using 20 strokes of an ice-cold Dounce homogenizer and centrifuged at 700×g for 10 min at 4° C. The resultant postnuclear supernatant was centrifuged at 17,000×g for 15 min at 4° C. to yield a melanosome-enriched granular fraction (17). This fraction was resuspended in 0.5-2 ml of ice-cold 0.25 mol/L sucrose, 10 mmol/L HEPES, pH 7.0 and fixed for 1 h at room temperature in 2% glutaraldehyde, 2% paraformaldehyde in 0.1 mol/L sodium cacodylate buffer, pH 7.3. The fixative was then removed and the samples stored in PBS containing 4% sucrose at 4° C. Samples were subsequently dehydrated with graded alcohols and embedded in epoxy resin. This section were stained with uranyl acetate and lead citrate and examined with a Zeiss EM10 electron microscope.

Series [6] is described as follows: pH dependence of absorbance and stability of the tyrosinase product. Type of series: physicochemical.
Excerpt: We studied the oxidation of TMECG by tyrosinase at pH 5.5. […] The initial formation of o-Q was confirmed by including reducing agents such as ascorbic acid or NADPH in the reaction medium. […] The pH transition might represent the equilibrium between the protonated form (QMH) and the deprotonated form (QM^−), a species which is stabilized by resonance and FIG. 9E represents the possible abundance of QM species in different melanocyte compartments.
In series [7] the test system is Caco-2 and SkMel-28 cells. Briefly: Cellular uptake of ECG, TMECG and QM. As to conditions: 50 μM catechins. Type of series: in vitro ADME, human. Here is the method: Cellular uptake was determined by the difference between the initial concentration of catechin and the calculated at specific times in the cellular medium, and expressed as a percentage of catechin at zero time. The values presented are the mean percentage determined from five independent experiments±SD.
For cellular uptake experiments Caco-2 and SkMel-28 cells were grown until reaching 90% confluence. Then, 20 ml of cellular medium containing 50 μM catechins and 0.2 mM ascorbic acid was added and incubated for 60 h in a CO2 incubator. At specified times 1 ml-aliquots were taken and frozen in liquid N2 until the catechin concentrations were determined by HPLC. Catechins were identified by their characteristic elution times and their concentration calculated with respect to calibration curves of known concentrations of catechins.

Another series concerns MAT2A. The following applies: cited from earlier work.
Series [8] concerns 4T1 mice breast cancer cell line. Briefly: 4T1 breast cancer model in Balb/c mice. Type of series: in vivo, mouse. The following applies: 40 mg/Kg/d intraperitoneally, Balb/c female mice. Here is the method: The 4T1 mice breast cancer cell line (ATCC) was used for tumour implantation. This cell line is highly metastatic and after its injection on the back of the Balb/c mice it expanded to the lungs forming metastasis in this organ. Initial experiments were designed for injection in the back to follow tumour growth and lung metastasis.
We treated 6 Balb/c female mice were treated intraperitoneally with TMCG (40 mg/Kg/d) and compared with 6 untreated (control) mice.

Like-named read-outs stand apart in the source and are kept apart here. Bounds are passed on as bounds.

On to `Nc1ncnc2c1ncn2[C@@H]1O[C@H](CO)[C@@H](O)[C@H]1O` [Adenosine, adenosine], for which the “effect of adenosine alone on SkMel-28 growth” value with SkMel-28 cells [1] (up to 500 μM) is listed as “had not any detectable effect”.

For orientation: IC50 means the concentration needed to halve the response being measured. On to `OCCN(CCO)c1nc(N2CCCCC2)c2nc(N(CCO)CCO)nc(N3CCCCC3)c2n1` [Dipyridamole, dipyridamole, reference compound], for which the concentration for half-maximal inhibition (IC50) with SkMel-28 cells [1] (Homo sapiens, dipyridamole alone, SkMel-28, read-out: IC50 (at 5 days)) was 20000 nM; in the series with SkMel-28 cells [1] (Homo sapiens, in the presence of 50 μM TMECG, SkMel-28, read-out: IC50 (at 5 days) in the presence of TMECG) it was less than 1000 nM. In addition, the “effect on tumor growth” value in series [2] (females, DIPY 10 mg/Kg/d alone) was “had not visible effects on tumor growth”. Also, the “effect of single treatments” value in series [2] (male mice) is on record as “not effective”.

Consider `Oc1cc(O)c2c(c1)O[C@H](c1ccc(O)c(O)c1)[C@H](O)C2` [EC, Epicatechin, reference compound], for which the “effect of natural and synthetic catechins on Caco-2 growth” value in the series with Caco-2 cells is “no detectable activity”.

As a reminder, the koff is the first-order rate constant of dissociation. The Ki is a measure of affinity in units of concentration, obtained from inhibition or displacement. As usually defined, the kon is a measure of how fast the partners come together. For `O=C(O[C@@H]1Cc2c(O)cc(O)cc2O[C@@H]1c1cc(O)c(O)c(O)c1)c1cc(O)c(O)c(O)c1` [EGCG, reference compound], on rHDHFR [3], the koff is 0.12 s⁻¹, affinity was put at a Ki of 920 nM and the on-rate constant (kon) amounted to 130000 M⁻¹ s⁻¹. Further, on rHDHFR [4], the “Decrease % further EI reactions” value was 28 −fold and the Ki was determined as 33 nM.

A word on the Km: it is the concentration of substrate that gives half-maximal velocity. As for `N[C@@H](Cc1ccc(O)c(O)c1)C(=O)O` [L-dopa], the Michaelis-Menten constant (Km) on human tyrosinase is 360 µM.

In the case of `CN(Cc1cnc2nc(N)nc(N)c2n1)c1ccc(C(=O)N[C@@H](CCC(=O)O)C(=O)O)cc1` [MTX, methotrexate], the melanosome melanin content result in the series on SkMel-28 cells [5] is on record as “much less melanin content”. The “effect of leucovorin co-treatment on growth inhibition” value with SkMel-28 cells [1] (100 μM leucovorin, MTX 1 μM or TMECG 50 μM, 3 days) is given as “effectively reversed this inhibition”. The inhibition at 1 µM in the series on SkMel-28 cells [1] (Homo sapiens, SK-MEL-28, 72 h, 1 μM, 3 days, SkMel-28, read-out: growth inhibited) is 70%. In addition, the “effect of sulfasalazine (RFC inhibitor) on antiproliferative action” value in the series with SkMel-28 cells [1] (sulfasalazine 0.5 mM, MTX 0.2 μM or TMECG 10 μM, 3 days) is “inhibited the antiproliferative action of MTX”.

Usually pKa stands for the pH at which an ionisable group is half protonated. Turning to `COc1cc(C(=O)O[C@H](Cc2c(O)cc(O)cc2O)C(=O)c2ccc(O)c(O)c2)cc(OC)c1OC` [QM], on rHDHFR [3], the “reversibility of binding to rHDHFR” value was “essentially irreversible” and the Ki was 8.2 ± 0.11 nM. The off-rate constant (koff) at rHDHFR [3] (read-out: koff) is 0.00048 s⁻¹. In addition, the kon on rHDHFR [3] (read-out: kon) was found to be 58000 M⁻¹ s⁻¹. In series [6], the stability entry is given as “high stability over a wide pH range”. The pKa in series [6] (absorbance at 470 nm vs pH, read-out: pKa of ionisable group) came to 6.9 ± 0.1. Further, the “cellular uptake / membrane transport” value in series [7] is given as “limited degree of cell membrane diffusion”. Also, on rHDHFR [4], the “Decrease % further EI reactions” value was 0 −fold and the inhibition constant Ki came to 8.2 nM.

Take `C[S+](CC[C@H](N)C(=O)O)C[C@H]1O[C@@H](n2cnc3c(N)ncnc32)[C@H](O)[C@@H]1O` (stereo partly shown) [SAM, S-adenosylmethionine, reference compound]: the “effect of SAM alone on SkMel-28 growth” value in the series on SkMel-28 cells [1] (SAM alone) is “Only high amount of SAM (up to 100 μM) affected SkMel-28 growth”. Also, the IC50 with MAT2A (Sullivan and Hoffman, 1983, read-out: IC50 for inhibition of MAT2) was 60000 nM.

In the case of `COc1cc(C(=O)O[C@H]2Cc3c(O)cc(O)cc3O[C@@H]2c2ccc(O)c(O)c2)cc(OC)c1OC` [TMCG, 3-O-(3,4,5-Trimethoxybenzoyl)-(−)-Catechin], in series [8], the “growth of metastases (lung tumor volume)” value is “slower growth of metastases”.

On to `CSCC[C@H](N)C(=O)O` [methionine], for which, in the series with MAT2A, the Km was 4 to 10 µM.

Turning to “epicatechin-3-gallate [ECG, reference compound]”, at rHDHFR [3], the koff is 0.30 s⁻¹, the inhibitory constant (Ki) amounted to 1780 nM and the association rate constant (kon) amounted to 170000 M⁻¹ s⁻¹. On rHDHFR [4], the “Decrease % further EI reactions” value is 19 −fold and the Ki was determined as 92 nM.
